Assays:
[1] = target: LMP7 (purified human immuno proteasome) (Homo sapiens, UniProt P20618+P28062); assay: Determination of LMP7 activity (fluorescence intensity assay, Suc-LLVY-AMC); format: biochemical; details: for Selectivity LMP7 vs Beta5: LMP7 versus Beta5, incubation for 20 minutes; for IC50: purified human immuno proteasome 0.25 nM, incubation for 20 minutes at 25° C., Suc-LLVY-AMC 40 μM
Description: Determination of LMP7 Activity:
Measurement of LMP7 inhibition is performed in 384 well format based on fluorescence intensity assay.
(§1) Purified human immuno proteasome (0.25 nM) and serial diluted compounds in DMSO (range of concentrations from 30 μM to […]) or controls are incubated for 20 minutes or 120 minutes (long incubation) at 25° C. in assay buffer containing 50 mM Tris pH 7.4, 0.03% SDS, 1 mM EDTA and 1% DMSO. The reaction is initiated by the addition of the fluorogenic peptide substrate, Suc-LLVY-AMC (Bachem 1-1395), at a concentration of 40 μM. After 60 minutes of incubation at 37° C., fluorescence intensity is measured at λex=350 nm and λem=450 nm with a fluorescence reader (Perkin Elmer Envision reader or equivalent).
(§2) Unless indicated otherwise the results are obtained after incubation for 20 minutes.

[2] = target: Beta5 (purified human constitutive proteasome) (Homo sapiens, UniProt P20618+P28074); assay: Determination of Beta5 activity (fluorescence intensity assay, Suc-LLVY-AMC); format: biochemical; details: purified human constitutive proteasome 1.25 nM, incubation for 20 minutes at 25° C., Suc-LLVY-AMC 40 μM
Description: Determination of Beta5 Activity:
Measurement of Beta5 inhibition is performed in 384 well format based on fluorescence intensity assay.
as §1, with “constitutive” for “immuno”, “(1.25” for “(0.25”
as §2

[3] = target: LMP7 subunit of the immunoproteasome (Homo sapiens, UniProt P20618+P28062); details: Singh et al, Br. J. Hematology 152(2): 155-163; cited from earlier work

Selectivity LMP7 vs Beta5 [1] | IC50 [1] [nM] | IC50 [2] [nM] | Structure (SMILES) | selective inhibitor of the LMP7 subunit of the immunoproteasome [3] [fold]
++ (100 ≤ Selectivity < 300) | ≤ 50 | 500 to 5000 | Cc1cccc2c(C[C@H](NC(=O)[C@H]3CCCO3)B(O)O)coc12 [Compound 29, [(1R)-2-(7-methylbenzo-furan-3-yl)-1-[[(2R)-tetrahydrofuran-2-carbonyl]amino]ethyl]-boronic acid] | 
++ (100 ≤ Selectivity < 300) | 50 to 500 | 5000 to 30000 | Cc1cccc2c(C[C@@H](NC(=O)[C@H]3CCCO3)B(O)O)coc12 [Compound 30] | 
++ (100 ≤ Selectivity < 300) | ≤ 50 | 50 to 500 | COCCC(=O)N[C@@H](Cc1coc2ccccc12)B(O)O [Compound 31, [(1R)-2-(benzofuran-3-yl)-1-(3-methoxy-propanoylamino)ethyl]-boronic acid] | 
++ (100 ≤ Selectivity < 300) | ≤ 50 | 5000 to 30000 | O=C(N[C@@H](Cc1coc2ccccc12)B(O)O)[C@H]1CCOC1 [Compound 32, [(1R)-2-(benzofuran-3-yl)-1-[[(3S)-tetrahydro-furan-3-carbonyl]-amino]ethyl]boronic acid] | 
++++ (Selectivity ≥ 500) | ≤ 50 | 500 to 5000 | O=C(N[C@@H](Cc1coc2ccccc12)B(O)O)[C@@H]1CCOC1 [Compound 33, [(1R)-2-(benzofuran-3-yl)-1-[[(3R)-tetrahydro-furan-3-carbonyl]-amino]ethyl]boronic acid] | 
++++ (Selectivity ≥ 500) | ≤ 50 | 500 to 5000 | O=C(N[C@@H](Cc1coc2ccccc12)B(O)O)C1COc2ccccc21 (stereo partly drawn) [Compound 35, [(1R)-2-(benzofuran-3-yl)-1-(2,3-dihydrobenzo-furan-3-carbonylamino)-ethyl]boronic acid] | 
+++ (300 ≤ Selectivity < 500) | ≤ 50 | 500 to 5000 | O=C(N[C@@H](Cc1coc2ccccc12)B(O)O)C1OCCc2ccccc21 (stereo partly drawn) [Compound 38, [(1R)-2-(benzofuran-3-yl)-1-(isochromane-1-carbonylamino)ethyl]-boronic acid] | 
++ (100 ≤ Selectivity < 300) | ≤ 50 | 500 to 5000 | O=C(N[C@@H](Cc1coc2ccccc12)B(O)O)[C@@H]1COCCO1 [Compound 39, [(1R)-2-(benzofuran-3-yl)-1-[[(2S)-1,4-dioxane-2-carbonyl]-amino]ethyl]boronic acid] | 
+ (Selectivity <100) | ≤ 50 | 500 to 5000 | O=C(N[C@@H](Cc1coc2ccccc12)B(O)O)[C@H]1COCCO1 [Compound 40, [(1R)-2-(benzofuran-3-yl)-1-[[(2R)-1,4-dioxane-2-carbonyl]-amino]ethyl]boronic acid] | 
++++ (Selectivity ≥ 500) | 50 to 500 | 5000 to 30000 | O=C(N[C@@H](C[C@@H]1COc2ccccc21)B(O)O)[C@@H]1CCOC1 [Compound 41, [(1R)-2-[(3S)-2,3-dihydrobenzofuran-3-yl]-1-[[(3R)-tetra-hydrofuran-3-carbonyl]-amino]ethyl]boronic acid] | 
+++ (300 ≤ Selectivity < 500) | 50 to 500 | 5000 to 30000 | Cc1cccc2c1OC[C@H]2C[C@H](NC(=O)[C@@H]1CCOC1)B(O)O [Compound 42, [(1R)-2-[(3S)-7-methyl-2,3-dihydrobenzofuran-3-yl]-1-[[(3R)-tetra-hydrofuran-3-carbonyl]-amino]ethyl]boronic acid] | 
 |  |  | CC1=C(C(=O)N[C@H](C)C(=O)N[C@@H](Cc2c[nH]c3ccccc23)C(=O)N[C@@H](Cc2ccccc2)C(=O)[C@@]2(C)CO2)Cc2ccccc21 [PR-924] | 100

Reference: US20210317145A1, “Boronic Acid Derivatives” (Merck Patent GmbH, priority 2018, published 2021)
